Assay results reported in US20250325555A1, “Method of Treating Obesity with a Luteinizing Hormone Receptor Agonist” (ICAHN SCHOOL OF MEDICINE AT MOUNT SINAI, priority 2022, published 2025).

Experiments:
mice on high-fat diet = experiment: metabolic cages, mice on high-fat diet; assay type: in vivo, mouse; conditions: 17 mg/kg subcutaneous, monitored for 48 hours
Description: (§1) 3T3-L1 adipocytes were thus pretreated with ORG 43553 for 1 hour before measuring oxygen consumption rate (OCR) on a Seahorse Xf96 Analyzer. […] ORG 43553 increased OCR at baseline and upon oligomycin exposure, indicating mitochondria proton leak—a surrogate for thermogenesis. To confirm increased energy expenditure in vivo, mice (N=6/group) on high-fat diet were acclimated to metabolic cages for 1 day, before being injected subcutaneously with ORG 43553 (17 mg/kg, blue line) or vehicle and monitored for 48 hours.

3T3-L1 adipocytes [1] = experiment: oil droplet accumulation (Oil Red O staining) in 3T3-L1 adipocytes; assay type: cell-based, mouse; conditions: 6 nM, 12 hours
Description: (§2) In order to study the mechanism of LHCGR activation on body fat, 3T3.L1 pre-adipocytes and adipose organoids were used. Oil Red 0 staining can be used to mark lipid-containing vacuoles and quantify cell lipid content. […] The thickness of the “differentiating cell layer” was measured with QuPath-0.2.3.

[2] = tested on: organoids derived from 3T3-L1 cells; experiment: adipose organoids derived from 3T3-L1 cells, thickness of differentiating cell layer; assay type: cell-based, mouse; conditions: exposed for 3 days, further differentiated 7 days
Description: as §2

[3] = tested on: C57BL/6 mice fed on high-fat diet; experiment: ORG 43553 in C57BL/6 mice on high-fat diet, 9 weeks (Example 6); assay type: in vivo, mouse; conditions: 17 mg/kg subcutaneous
Description: In order to evaluate the effect of treatment with LHCGR agonist ORG 43553 on body fat in mice, 14-week-old C57BL/6 mice (25 mice/group) were treated with subcutaneous injections of vehicle or ORG 43553 (17 mg/kg), and fed on high-fat diet for 9 weeks.

3T3-L1 adipocytes [4] = experiment: oxygen consumption rate (OCR) on Seahorse Xf96 Analyzer; assay type: cell-based, mouse; conditions: pretreated for 1 hour
Description: as §1

male C57BL/6 mice = experiment: ORG 43553 in male C57BL/6 mice, 9 weeks (Example 8, incl. replication cohort); assay type: in vivo, mouse
Description: Next, the LHCGR agonist ORG 43553 was injected into male C57BL/6 mice (N=24/group) (17 mg/kg, subcutaneous, twice-a-week) for 9 weeks.

human LHCGR = human LHCGR (Homo sapiens, UniProt P22888); conditions: read-out: EC50, agonistic activity to human LHCGR; cited from earlier work
adipose LHCGR = biological target: T1, adipose LHCGR (Mus musculus, UniProt P30730); experiment: ERK1/2 phosphorylation in differentiated 3T3-L1 adipocytes (Western blot); assay type: cell-based
T1 construct: host or cells: differentiated 3T3-L1 adipocytes
Text: siRNA KNOCKDOWN: Lentiviral vectors expressing Lhcgr siRNA (ABM 2649609) or siControl (ABM LVP015-G) were used per manufacturer's recommendation.
WESTERN BLOTTING: Proteins were blotted with commercial antibodies (Cell Signaling, Phospho-ERK1/2, 9101S; ERK1/2, 4695S, 1:5000).

[5] = 17 mg/kg subcutaneous twice-a-week, 9 weeks

T1 sequence (P30730 27-700): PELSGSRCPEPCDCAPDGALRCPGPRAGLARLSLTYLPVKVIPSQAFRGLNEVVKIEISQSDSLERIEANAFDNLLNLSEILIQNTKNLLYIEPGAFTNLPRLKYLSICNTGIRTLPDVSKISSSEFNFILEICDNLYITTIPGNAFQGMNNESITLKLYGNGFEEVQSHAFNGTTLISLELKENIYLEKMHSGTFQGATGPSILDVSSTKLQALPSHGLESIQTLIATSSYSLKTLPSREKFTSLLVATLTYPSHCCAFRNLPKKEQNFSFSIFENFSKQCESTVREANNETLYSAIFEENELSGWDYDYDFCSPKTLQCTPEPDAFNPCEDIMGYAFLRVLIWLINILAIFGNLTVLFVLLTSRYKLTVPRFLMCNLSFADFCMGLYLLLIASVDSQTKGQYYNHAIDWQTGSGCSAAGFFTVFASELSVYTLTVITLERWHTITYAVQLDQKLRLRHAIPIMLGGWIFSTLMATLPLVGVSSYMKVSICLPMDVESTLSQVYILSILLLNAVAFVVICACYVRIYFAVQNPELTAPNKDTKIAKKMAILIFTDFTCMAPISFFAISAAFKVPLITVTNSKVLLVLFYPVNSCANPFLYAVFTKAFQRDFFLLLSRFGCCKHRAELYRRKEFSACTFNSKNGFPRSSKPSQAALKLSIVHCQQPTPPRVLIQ
human LHCGR, sequence (P22888 27-699): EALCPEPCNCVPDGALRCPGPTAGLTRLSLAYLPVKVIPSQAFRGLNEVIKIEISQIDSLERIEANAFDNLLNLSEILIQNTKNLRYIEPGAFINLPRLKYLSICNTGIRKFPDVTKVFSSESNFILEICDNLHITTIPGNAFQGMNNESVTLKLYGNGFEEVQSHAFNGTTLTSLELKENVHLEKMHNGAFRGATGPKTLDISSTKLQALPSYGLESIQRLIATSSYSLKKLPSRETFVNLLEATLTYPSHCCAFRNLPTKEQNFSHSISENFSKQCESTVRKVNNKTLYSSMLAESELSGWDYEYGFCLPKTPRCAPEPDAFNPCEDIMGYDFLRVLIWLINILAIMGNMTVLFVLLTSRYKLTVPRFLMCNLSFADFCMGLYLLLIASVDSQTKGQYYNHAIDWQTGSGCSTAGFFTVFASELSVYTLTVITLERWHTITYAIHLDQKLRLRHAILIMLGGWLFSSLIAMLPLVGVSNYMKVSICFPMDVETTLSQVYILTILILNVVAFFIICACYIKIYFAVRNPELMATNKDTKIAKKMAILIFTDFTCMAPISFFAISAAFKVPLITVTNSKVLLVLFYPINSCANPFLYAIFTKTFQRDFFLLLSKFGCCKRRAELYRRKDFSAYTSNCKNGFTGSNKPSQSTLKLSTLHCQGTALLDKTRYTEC

Q: With `CSc1nc(-c2cccc(NC(=O)CN3CCOCC3)c2)c2c(N)c(C(=O)NC(C)(C)C)sc2n1` [ORG 43553, 5-amino-2-methylsulfanyl-4-[3-(2-morpholin-4-yl-acetylamino)-phenyl]-thieno[2,3-d]pyrimidine-6-carboxylic acid tert-butylamide] as the compound, how does the “energy expenditure (EE)” value (mice on high-fat diet) read?
A: increased acutely

Q: What about the “oxygen consumption (VO2)” value (mice on high-fat diet) of the same compound?
A: increased acutely

Q: What about the “oil droplet accumulation (Oil Red O staining)” value (3T3-L1 adipocytes [1]) of the same compound?
A: reduced oil droplet accumulation

Q: And the “differentiated layer of organoids (thickness) compared to vehicle-treated organoids” value [2]?
A: substantial reduction

Q: And the diet-induced fat mass [3]?
A: reduced

Q: What about the gWAT weight [3] of the same compound?
A: lower

Q: And the iWAT weight [3]?
A: lower

Q: What about the lean mass [3] of the same compound?
A: but not lean mass

Q: What about the mWAT weight [3] of the same compound?
A: lower

Q: What about the total mass [3] of the same compound?
A: reduced

Q: What about the “oxygen consumption rate (OCR) at baseline” value (3T3-L1 adipocytes [4]) of the same compound?
A: increased

Q: What about the “oxygen consumption rate (OCR) upon oligomycin exposure” value (3T3-L1 adipocytes [4]) of the same compound?
A: increased

Q: What about the fat mass (male C57BL/6 mice; [5]) of the same compound?
A: significant reduction

Q: What about the gWAT (male C57BL/6 mice; [5]) of the same compound?
A: reduced

Q: What about the iWAT (male C57BL/6 mice; [5]) of the same compound?
A: reduced

Q: What about the “number of adipocytes in iWAT with areas below 4000 μm^2” value (male C57BL/6 mice; [5]) of the same compound?
A: greater numbers

Q: What about the “number of adipocytes in iWAT with areas greater than 4000 μm^2” value (male C57BL/6 mice; [5]) of the same compound?
A: fewer

Q: What about the “renal WAT (rWAT)” value (male C57BL/6 mice; [5]) of the same compound?
A: reduced

Q: And the fat mass (male C57BL/6 mice; replication cohort)?
A: significant reduction

Q: And the gWAT (male C57BL/6 mice; replication cohort)?
A: reduced

Q: What about the iWAT (male C57BL/6 mice; replication cohort) of the same compound?
A: reduced

Q: And the mWAT (male C57BL/6 mice; replication cohort)?
A: reduced

Q: What about the total mass (male C57BL/6 mice; replication cohort) of the same compound?
A: significant reduction

Q: And the EC50 (human LHCGR)?
A: 3.7 nM

Q: What about the ERK1/2 phosphorylation (adipose LHCGR; differentiated 3T3-L1 adipocytes) of the same compound?
A: rapidly induced ERK1/2 phosphorylation in a concentration-dependent manner

Q: And the “ERK1/2 phosphorylation with LHCGR siRNA knockdown” value (adipose LHCGR; siLhcgr 3T3-L1 cells)?
A: no signal
